| Compound | melting point |
| --- | --- |
| CC(=O)N[C@H]1C[S@+]([O-])[C@@H](c2ccccc2)N(c2ccccc2)C1=O [Example 1b, N-[(1S,2S,5R)-1,4-dioxo-2,3-diphenyl-1λ^4,3-thiazinan-5-yl]acetamide] | 176 to 179 °C |
| O=C1c2ccccc2[S+]([O-])C(c2ccccc2)N1c1ccccc1 (centres unmarked) [Example 1c, 2,3-diphenyl-2,3-dihydro-4H-1,3-benzothiazin-4-one 1-oxide] | 208 to 209 °C |
| O=C1c2cccnc2[S+]([O-])C(c2ccccc2)N1c1ccccc1 (centres unmarked) [Example 1d, 2,3-diphenyl-2,3-dihydro-4H-pyrido[3,2-e]-[1,3]thiazin-4-one 1-oxide] | 177 to 179 °C |
| O=C1CC2(CC2)C[S+]([O-])C(c2ccccc2)N1c1ccccc1 (centres unmarked) [Example 1e, 6,7-diphenyl-5λ^4-thia-7-azaspiro[2.6]nonane-5,8-dione] | 193 to 194 °C |

Second part, the molecule after the results:

| melting point | Compound |
| --- | --- |
| 145 to 148 °C | O=C1CCS(=O)(=O)C(c2ccccc2)N1c1ccccc1 (centres unmarked) [Example 2a, 2,3-diphenyl-2,3,5,6-tetrahydro-4H-1,3-thiazin-4-one 1,1-dioxide] |
| 170 to 194 °C (dec.) | CC(=O)N[C@H]1CS(=O)(=O)[C@@H](c2ccccc2)N(c2ccccc2)C1=O [Example 2b, N-[(2S,5R)-1,1,4-trioxo-2,3-diphenyl-1λ^6,3-thiazinan-5-yl]acetamide] |
| 163 to 165 °C | O=C1c2ccccc2S(=O)(=O)C(c2ccccc2)N1c1ccccc1 (centres unmarked) [Example 2c, 2,3-diphenyl-2,3-dihydro-4H-1,3-benzothiazin-4-one 1,1-dioxide] |
| 186.6 to 187.7 °C (dec.) | O=C1CC2(CC2)CS(=O)(=O)C(c2ccccc2)N1c1ccccc1 (centres unmarked) [Example 2e, 6,7-diphenyl-5?^6-thia-7-azaspiro[2.6]nonane-5,5,8-trione] |

From patent publication US20220259165A1, “S-OXIDES OF 2,3-DIARYL-2,3-DIHYDRO-4H-1,3-THIAZIN-4-ONES AND 2,3-DIARYL-1,3-THIAZEPAN-4-ONES AND METHODS FOR MAKING” (The Penn State Research Foundation, priority 2019, published 2022)
